# Test results reported in ChEMBL document CHEMBL1201862, “PubChem BioAssay data set” (2004).
# Activity calls are given as the source filed them. Rule as the data show it, for most assays here: actives have a measured EC50 and inactives only a lower limit.
# Legend:
# [1] = NIH-3T3 fibroblast cytotoxicity, dose response, cytotoxicity control, cell-based, fluorescence, Alamar Blue, secondary assay (AID 2327); type: functional;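 also: NIH-3T3 mouse fibroblasts cultured with fluconazole at 8 µg/mL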
# [2] = system: Streptococcus sp. 'group A'; assay: Streptococcus pyogenes SK(-)GAS viability under kanamycin – luminescence, BacTiterGlo, confirmation, counter-screen for streptokinase expression inhibitor project, dose response (AID 1900); type: functional, organism-based
# BJ [3] = assay: BJ-TERT fibroblast viability loss – cell-based, RAS-independent, luminescence, dose response (AID 1933); type: functional; details: Homo sapiens
# Beta-galactosidase = Beta-galactosidase (Escherichia coli, UniProt Q8VNN2); assay: PubChem AID 485352; type: functional
# Streptokinase A = target: T1, Streptokinase A (Streptococcus pyogenes serotype M1, UniProt P10520); assay: viability-normalized secreted streptokinase activity reduction – plasminogen activation absorbance, OD405, dose response (AID 1914); type: functional, Streptococcus pyogenes M1 GAS;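 also: secreted streptokinase activity via plasminogen activation per viability signal from cell pellet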
# T1 sequence (P10520 whole entry): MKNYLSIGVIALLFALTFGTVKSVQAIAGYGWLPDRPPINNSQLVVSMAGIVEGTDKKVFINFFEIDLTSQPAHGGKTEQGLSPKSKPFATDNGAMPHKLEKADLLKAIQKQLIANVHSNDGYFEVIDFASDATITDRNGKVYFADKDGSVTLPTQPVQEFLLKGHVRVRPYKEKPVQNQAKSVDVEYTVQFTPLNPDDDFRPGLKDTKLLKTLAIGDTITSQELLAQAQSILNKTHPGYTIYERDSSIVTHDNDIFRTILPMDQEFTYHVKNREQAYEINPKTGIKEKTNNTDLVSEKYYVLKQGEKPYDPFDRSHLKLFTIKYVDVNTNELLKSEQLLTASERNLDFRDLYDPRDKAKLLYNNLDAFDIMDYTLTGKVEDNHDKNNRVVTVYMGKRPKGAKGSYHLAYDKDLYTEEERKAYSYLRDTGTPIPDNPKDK
# BJ [4] = assay: cells; type: functional, cell-based; details: Homo sapiens
# [5] = fluconazole-exposed Candida albicans growth modulators – fluorescence, retest, confirmation (AID 2467); type: functional, cell-based
# [6] = target: Type-1 angiotensin II receptor (Homo sapiens, UniProt P30556); assay: antagonism of angiotensin II type 1 receptor – cell-based, uHTS hits, selectivity assay for APJ receptor antagonist project, dose response (AID 463214); type: functional;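 also: antagonist potency against angiotensin II stimulated AT1 response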
# [7] = target: Serine/threonine-protein phosphatase (Candida dubliniensis (strain CD36 / CBS 7987 / NCPF 3949 / NRRLY-17841) (Yeast), UniProt B9W6M3); assay: blockers of CaCl2-induced CDRE-lacZ signaling – S. cerevisiae, luminescence, secondary, dose response (AID 2388); type: functional, cell-based;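 also: yeast reporter cells carrying a calcineurin-responsive lacZ construct stimulated with calcium chloride; luminescent beta-galactosidase reporter signal in whole cells rather than isolated phosphatase activity; potency for inhibition where a drop in reporter signal means calcineurin blockade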
# BJ [8] = assay: BJ-TERT-LT-ST fibroblast viability loss – cell-based, RAS-independent, luminescence, dose response (AID 1935); type: functional; details: Homo sapiens;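 also: BJ fibroblasts immortalized with TERT plus LT and ST oncogenes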
# [9] = DRD fibroblast viability loss – cell-based, non-viral oncogenic, luminescence, dose response (AID 1934); type: functional; details: Homo sapiens
# Streptococcus = assay: GAS UMAA2166 growth inhibition – luminescence, BacTiterGlo, counter-screen for streptokinase expression inhibitor project, dose response (AID 1915); type: functional, organism-based;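 also: potency for reduction of bacterial viability or growth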
# [10] = target: Intestinal-type alkaline phosphatase (Homo sapiens, UniProt P09923); assay: activation of human intestinal alkaline phosphatase – biochemical, dose response (AID 488873); type: functional
# [11] = target: Beta-adrenergic receptor kinase 1 (Homo sapiens, UniProt P25098); assay: aptamer displacement from bead-bound GRK2 – biochemical, cherry pick 1, bead flow cytometry, dose response (AID 504500)
# [12] = HEK-293T viability loss after treatment – luminescence, T-cell screen hits, cytotoxicity control for TCR NF-kB inhibitor project, dose response (AID 489026); type: functional, cell-based;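 also: cells exposed to compound about 14 hours before the viability readout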
# [13] = target: Intestinal-type alkaline phosphatase (Mus musculus, UniProt P24822); assay: mouse intestinal alkaline phosphatase activators, dose response, biochemical, luminescence, uHTS hits (AID 488783); type: functional
# [14] = target: T2, Alkaline phosphatase, tissue-nonspecific isozyme (Homo sapiens, UniProt P05186); assay: activation of tissue-nonspecific alkaline phosphatase – biochemical, TNAP isozyme, mouse IAP uHTS hits, selectivity assay for mouse IAP activator project, dose response (AID 488880); type: functional
# T2 sequence (P05186 whole entry): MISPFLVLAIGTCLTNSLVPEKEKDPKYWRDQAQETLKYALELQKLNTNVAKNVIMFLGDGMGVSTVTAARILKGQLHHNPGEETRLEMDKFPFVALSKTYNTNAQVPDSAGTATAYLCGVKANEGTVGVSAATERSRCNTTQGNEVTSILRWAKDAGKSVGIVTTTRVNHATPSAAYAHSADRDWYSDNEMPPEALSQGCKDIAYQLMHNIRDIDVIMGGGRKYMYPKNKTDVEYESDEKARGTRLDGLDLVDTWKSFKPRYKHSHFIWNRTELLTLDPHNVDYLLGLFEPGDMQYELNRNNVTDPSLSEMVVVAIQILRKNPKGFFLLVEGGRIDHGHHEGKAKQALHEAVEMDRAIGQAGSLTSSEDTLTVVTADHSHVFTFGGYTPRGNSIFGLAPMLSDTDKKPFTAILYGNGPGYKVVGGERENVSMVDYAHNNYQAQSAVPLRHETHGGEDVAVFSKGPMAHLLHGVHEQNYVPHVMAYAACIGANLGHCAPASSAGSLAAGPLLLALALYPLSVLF
# [15] = target: T3, Apoptotic protease-activating factor 1 (Homo sapiens, UniProt O14727); type: functional
# T3 sequence (O14727 whole entry): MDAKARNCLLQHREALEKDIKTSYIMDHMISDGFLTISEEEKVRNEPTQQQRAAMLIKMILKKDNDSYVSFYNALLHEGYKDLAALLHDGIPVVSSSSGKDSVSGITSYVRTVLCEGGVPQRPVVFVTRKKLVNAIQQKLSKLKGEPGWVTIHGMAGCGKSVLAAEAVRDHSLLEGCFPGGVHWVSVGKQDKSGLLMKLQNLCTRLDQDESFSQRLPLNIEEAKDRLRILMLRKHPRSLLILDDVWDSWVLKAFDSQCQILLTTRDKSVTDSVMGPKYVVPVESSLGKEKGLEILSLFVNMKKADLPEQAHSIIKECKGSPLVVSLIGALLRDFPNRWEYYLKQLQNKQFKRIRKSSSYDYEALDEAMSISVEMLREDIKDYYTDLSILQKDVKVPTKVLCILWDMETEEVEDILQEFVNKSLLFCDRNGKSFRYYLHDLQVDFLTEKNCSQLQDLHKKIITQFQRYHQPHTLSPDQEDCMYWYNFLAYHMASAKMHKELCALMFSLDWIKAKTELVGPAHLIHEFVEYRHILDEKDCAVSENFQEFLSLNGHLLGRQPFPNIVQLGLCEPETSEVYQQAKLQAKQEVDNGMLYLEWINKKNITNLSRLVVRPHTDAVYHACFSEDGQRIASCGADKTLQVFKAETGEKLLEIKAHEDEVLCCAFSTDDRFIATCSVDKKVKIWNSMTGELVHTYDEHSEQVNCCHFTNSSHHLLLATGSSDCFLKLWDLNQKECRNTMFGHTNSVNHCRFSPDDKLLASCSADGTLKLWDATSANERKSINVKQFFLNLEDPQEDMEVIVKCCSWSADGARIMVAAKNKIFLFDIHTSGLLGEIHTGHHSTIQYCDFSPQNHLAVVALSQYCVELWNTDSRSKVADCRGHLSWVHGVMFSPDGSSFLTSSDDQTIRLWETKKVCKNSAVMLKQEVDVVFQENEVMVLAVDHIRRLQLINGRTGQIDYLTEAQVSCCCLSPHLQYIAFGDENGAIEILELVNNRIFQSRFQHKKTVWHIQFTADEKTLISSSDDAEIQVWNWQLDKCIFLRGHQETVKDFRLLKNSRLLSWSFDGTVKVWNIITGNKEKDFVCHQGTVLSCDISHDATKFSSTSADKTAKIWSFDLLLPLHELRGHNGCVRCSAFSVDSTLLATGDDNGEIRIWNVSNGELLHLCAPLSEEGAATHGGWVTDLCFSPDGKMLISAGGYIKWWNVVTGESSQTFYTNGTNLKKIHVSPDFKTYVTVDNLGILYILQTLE
# BJ [16] = assay: growth inhibition of engineered Ras-driven BJ cells – cell-based, alamar blue fluorescence, cherrypicked samples, dose response (AID 2631); type: functional; details: Homo sapiens;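 also: confirmatory dose-response assay in RAS-dependent BJ fibroblasts engineered with TERT, LT and ST, with cytotoxicity read by fluorescence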
# INS1 = assay: INS-1E survival protection against cytokine death – cell-based, luminescence, retest, dose response (AID 449756); type: functional; details: Rattus norvegicus;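 also: cell death triggered by IL-1 beta plus TNF-alpha plus IFN-gamma mixture; protective hits raise ATP signal compared with cytokine alone wells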
# [17] = target: ATP-dependent molecular chaperone HSP82 (Candida albicans (strain WO-1) (Yeast), UniProt C4YTQ8); assay: steroid-induced GRE reporter decrease in yeast – S. cerevisiae, luminescence, Hsp90 inhibitor project, dose response (AID 2400); type: functional, cell-based;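 also: beta-galactosidase luminescence from glucocorticoid response element reporter as proxy for Hsp90 function; inhibitor potency where signal loss means Hsp90 inhibition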
# [18] = luciferase reporter signal suppression in cells – H4 neuroglioma cells, luminescence, dose response (AID 1990); type: functional, cell-based
# [19] = Luminescence Cell-Based Dose Response HTS to Identify Inhibitors of 5'UTR Stem-Loop Driven Prion Protein mRNA Translation in H4 Neuroglioblastoma Cells. [Related pubchem assays: 1827 (Project Summary), 1813 (Primary HTS)]; type: functional
# [20] = alpha-synuclein stem-loop luciferase translation blockers – H4 neuroglioma cells, luminescence, confirmation (AID 1988); type: functional, cell-based
# HEK293 = assay: EBV LMP1 TES2 canonical NF-kB signalling blockers – cell-based, HEK293, luciferase, cherry-pick, dose response (AID 588343); type: functional; details: Homo sapiens
# [21] = target: Sphingosine 1-phosphate receptor 2 (Homo sapiens, UniProt O95136); assay: Late-stage fluorescence-based dose-response cell-based counterscreen assay to identify agonists of the Sphingosine 1-Phosphate Receptor 3 (S1P3): Sphingosine 1-Phosphate Receptor 2 (S1P2) agonist assay.; type: functional
# [22] = target: T4, Sphingosine 1-phosphate receptor 4 (Homo sapiens, UniProt O95977); assay: Late-stage fluorescence-based dose-response cell-based counterscreen assay to identify agonists of the Sphingosine 1-Phosphate Receptor 3 (S1P3): Sphingosine 1-Phosphate Receptor 4 (S1P4) agonist assay.; type: functional
# T4 sequence (O95977 whole entry): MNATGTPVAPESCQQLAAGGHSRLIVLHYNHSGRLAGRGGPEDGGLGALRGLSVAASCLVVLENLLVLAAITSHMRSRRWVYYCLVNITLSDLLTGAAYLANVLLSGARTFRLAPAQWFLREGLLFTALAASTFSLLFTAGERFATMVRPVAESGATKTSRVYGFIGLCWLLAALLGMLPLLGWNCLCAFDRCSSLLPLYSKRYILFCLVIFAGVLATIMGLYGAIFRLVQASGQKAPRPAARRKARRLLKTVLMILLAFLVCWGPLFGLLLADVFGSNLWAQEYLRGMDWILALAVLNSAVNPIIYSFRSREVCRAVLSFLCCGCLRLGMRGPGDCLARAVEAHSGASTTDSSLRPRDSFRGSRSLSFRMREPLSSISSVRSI
# [23] = target: 26S proteasome non-ATPase regulatory subunit 14 (Homo sapiens, UniProt O00487); assay: inhibition of proteasome subunit RPN11 – biochemical, fluorescence polarization, uHTS hits, confirmation (AID 602368); type: functional
# [24] = target: 72 kDa type IV collagenase (Homo sapiens, UniProt P08253); assay: Dose Response validation of uHTS RPN11 inhibitor hits using a MMP-2 Fluorescence assay.; type: functional
# Prothrombin = Prothrombin (Bos taurus, UniProt P00735); assay: thrombin protease inhibitors – biochemical, fluorescence polarization, uHTS hits, dose response (AID 602369); type: functional
# Sequence of Intestinal-type alkaline phosphatase (Homo sapiens, UniProt P09923) (P09923 whole entry): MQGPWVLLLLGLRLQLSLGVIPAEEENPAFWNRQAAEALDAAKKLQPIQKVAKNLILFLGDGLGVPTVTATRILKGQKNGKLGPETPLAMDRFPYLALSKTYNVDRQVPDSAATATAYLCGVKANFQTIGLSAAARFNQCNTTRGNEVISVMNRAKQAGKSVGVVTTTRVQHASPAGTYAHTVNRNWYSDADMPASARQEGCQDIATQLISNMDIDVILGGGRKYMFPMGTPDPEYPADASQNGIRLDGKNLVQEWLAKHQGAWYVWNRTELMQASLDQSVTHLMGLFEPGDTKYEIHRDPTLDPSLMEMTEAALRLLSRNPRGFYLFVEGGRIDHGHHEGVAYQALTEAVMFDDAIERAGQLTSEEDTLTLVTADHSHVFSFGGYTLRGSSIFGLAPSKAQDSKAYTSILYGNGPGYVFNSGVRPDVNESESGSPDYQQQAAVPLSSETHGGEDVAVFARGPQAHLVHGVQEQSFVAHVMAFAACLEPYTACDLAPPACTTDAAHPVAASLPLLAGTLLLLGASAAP
# Sequence of ATP-dependent molecular chaperone HSP82 (C4YTQ8 whole entry): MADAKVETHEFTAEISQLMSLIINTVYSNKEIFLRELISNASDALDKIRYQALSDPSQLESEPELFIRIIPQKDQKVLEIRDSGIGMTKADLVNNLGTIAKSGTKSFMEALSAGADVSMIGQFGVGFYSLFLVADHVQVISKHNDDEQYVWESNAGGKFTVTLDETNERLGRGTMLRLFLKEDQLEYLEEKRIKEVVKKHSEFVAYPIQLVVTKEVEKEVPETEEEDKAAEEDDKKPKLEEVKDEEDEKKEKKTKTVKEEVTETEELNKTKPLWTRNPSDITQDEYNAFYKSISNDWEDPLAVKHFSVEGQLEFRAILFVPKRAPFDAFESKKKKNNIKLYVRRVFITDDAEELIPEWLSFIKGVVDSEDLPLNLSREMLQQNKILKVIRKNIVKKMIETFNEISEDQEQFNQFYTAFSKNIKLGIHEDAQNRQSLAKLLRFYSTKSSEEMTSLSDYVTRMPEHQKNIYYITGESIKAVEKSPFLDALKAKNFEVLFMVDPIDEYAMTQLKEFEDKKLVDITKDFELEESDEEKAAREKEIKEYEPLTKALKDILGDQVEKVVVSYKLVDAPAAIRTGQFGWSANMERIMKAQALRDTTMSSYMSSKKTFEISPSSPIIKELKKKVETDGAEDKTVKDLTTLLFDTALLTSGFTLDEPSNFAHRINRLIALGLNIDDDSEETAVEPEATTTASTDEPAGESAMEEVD
# Sequence of 26S proteasome non-ATPase regulatory subunit 14 (O00487 whole entry): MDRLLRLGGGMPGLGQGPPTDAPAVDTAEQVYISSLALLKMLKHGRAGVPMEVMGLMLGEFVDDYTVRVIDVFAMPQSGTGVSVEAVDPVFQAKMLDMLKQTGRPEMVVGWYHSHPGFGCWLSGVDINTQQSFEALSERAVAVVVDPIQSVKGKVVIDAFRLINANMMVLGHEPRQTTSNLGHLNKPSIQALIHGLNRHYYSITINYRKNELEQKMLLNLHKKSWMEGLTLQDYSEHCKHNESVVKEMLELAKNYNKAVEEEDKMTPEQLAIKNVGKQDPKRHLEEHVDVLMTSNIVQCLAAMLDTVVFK
# Sequence of Beta-galactosidase (Q8VNN2 whole entry): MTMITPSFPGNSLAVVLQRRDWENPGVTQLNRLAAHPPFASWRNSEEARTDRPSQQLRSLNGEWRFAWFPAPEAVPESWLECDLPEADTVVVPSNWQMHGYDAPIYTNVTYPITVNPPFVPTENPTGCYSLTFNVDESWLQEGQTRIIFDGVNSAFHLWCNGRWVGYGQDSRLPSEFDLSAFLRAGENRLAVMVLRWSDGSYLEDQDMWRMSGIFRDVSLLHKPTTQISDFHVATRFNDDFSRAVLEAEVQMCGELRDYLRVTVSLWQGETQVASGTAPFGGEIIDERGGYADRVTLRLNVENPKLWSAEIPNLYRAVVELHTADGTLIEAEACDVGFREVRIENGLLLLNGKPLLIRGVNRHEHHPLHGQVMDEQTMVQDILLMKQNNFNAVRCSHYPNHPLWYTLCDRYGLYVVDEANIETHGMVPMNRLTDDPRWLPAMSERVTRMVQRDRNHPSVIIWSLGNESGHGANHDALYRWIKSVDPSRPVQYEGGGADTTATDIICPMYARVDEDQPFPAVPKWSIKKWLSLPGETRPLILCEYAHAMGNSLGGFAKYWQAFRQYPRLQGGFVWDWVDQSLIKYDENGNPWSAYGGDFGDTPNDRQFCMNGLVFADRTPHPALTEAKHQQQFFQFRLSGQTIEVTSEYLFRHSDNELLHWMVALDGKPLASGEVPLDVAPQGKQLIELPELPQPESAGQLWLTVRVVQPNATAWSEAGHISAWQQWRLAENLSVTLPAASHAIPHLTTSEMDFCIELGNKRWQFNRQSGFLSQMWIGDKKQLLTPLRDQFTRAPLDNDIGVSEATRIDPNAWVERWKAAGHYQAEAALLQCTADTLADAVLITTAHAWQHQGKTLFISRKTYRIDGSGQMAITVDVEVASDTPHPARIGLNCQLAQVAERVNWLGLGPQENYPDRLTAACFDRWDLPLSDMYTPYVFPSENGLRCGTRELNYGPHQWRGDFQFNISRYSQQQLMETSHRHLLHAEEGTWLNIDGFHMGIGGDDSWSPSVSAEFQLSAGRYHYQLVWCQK
# Sequence of Intestinal-type alkaline phosphatase (Mus musculus, UniProt P24822) (P24822 whole entry): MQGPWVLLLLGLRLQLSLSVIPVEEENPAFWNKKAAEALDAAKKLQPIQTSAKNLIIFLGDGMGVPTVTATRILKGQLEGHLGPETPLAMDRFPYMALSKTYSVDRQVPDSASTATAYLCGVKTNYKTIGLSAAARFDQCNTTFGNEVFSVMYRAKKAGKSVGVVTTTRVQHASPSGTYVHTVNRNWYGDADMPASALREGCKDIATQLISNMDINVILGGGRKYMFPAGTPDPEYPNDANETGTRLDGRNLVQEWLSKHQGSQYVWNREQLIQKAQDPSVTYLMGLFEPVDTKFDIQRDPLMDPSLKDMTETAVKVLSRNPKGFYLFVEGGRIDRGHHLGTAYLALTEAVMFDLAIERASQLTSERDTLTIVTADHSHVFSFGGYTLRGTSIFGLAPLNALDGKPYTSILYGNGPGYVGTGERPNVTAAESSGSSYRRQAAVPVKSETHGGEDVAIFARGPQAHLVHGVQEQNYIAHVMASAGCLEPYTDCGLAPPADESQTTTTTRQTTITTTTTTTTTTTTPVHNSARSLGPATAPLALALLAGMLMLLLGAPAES
# Sequence of Sphingosine 1-phosphate receptor 2 (O95136 whole entry): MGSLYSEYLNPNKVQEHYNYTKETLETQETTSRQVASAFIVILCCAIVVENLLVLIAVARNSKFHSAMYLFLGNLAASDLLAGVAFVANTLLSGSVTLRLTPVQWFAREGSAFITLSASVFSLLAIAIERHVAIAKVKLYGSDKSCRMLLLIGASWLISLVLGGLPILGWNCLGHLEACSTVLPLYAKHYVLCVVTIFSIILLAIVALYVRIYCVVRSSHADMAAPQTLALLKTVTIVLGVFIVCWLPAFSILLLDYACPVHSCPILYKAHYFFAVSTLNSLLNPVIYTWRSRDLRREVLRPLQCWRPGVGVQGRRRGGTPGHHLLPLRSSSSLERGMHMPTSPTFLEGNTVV
# Sequence of 72 kDa type IV collagenase (P08253 whole entry): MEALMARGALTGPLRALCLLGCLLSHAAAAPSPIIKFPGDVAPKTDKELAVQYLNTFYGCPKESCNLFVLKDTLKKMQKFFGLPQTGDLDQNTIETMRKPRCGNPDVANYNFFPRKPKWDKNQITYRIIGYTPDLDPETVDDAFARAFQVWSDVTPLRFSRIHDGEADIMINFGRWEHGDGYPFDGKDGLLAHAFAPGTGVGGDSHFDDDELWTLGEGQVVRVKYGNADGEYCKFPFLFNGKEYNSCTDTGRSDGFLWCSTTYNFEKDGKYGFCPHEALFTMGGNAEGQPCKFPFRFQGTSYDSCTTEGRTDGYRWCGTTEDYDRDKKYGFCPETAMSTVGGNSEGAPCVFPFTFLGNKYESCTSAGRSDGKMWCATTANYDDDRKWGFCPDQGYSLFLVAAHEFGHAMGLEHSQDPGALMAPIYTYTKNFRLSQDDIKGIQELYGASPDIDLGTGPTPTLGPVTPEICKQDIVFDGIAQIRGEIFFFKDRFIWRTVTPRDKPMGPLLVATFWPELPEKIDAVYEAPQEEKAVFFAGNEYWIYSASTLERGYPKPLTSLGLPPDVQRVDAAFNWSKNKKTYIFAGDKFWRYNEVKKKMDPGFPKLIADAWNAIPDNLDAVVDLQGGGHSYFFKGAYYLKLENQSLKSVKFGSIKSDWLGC
# Sequence of Type-1 angiotensin II receptor (P30556 whole entry): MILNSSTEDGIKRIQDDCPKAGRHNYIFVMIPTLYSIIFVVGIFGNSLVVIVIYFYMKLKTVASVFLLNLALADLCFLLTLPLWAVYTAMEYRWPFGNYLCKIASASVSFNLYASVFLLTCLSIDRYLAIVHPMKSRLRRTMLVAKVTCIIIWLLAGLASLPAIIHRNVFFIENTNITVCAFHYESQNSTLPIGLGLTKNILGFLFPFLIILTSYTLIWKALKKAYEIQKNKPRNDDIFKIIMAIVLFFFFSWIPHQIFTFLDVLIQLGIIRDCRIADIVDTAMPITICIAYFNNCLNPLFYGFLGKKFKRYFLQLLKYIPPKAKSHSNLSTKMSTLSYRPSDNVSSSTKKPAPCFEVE
smiles,measurement,setting,value
CCN1/C(=C/c2ccc3cc(C)ccc3[n+]2CC)Sc2ccc3sccc3c21,EC50,[1],21.1 µM (active)
same,EC50,[2],3.29 µM (active)
same,EC50,BJ [3],1.17 µM (inconclusive)
same,EC50,Beta-galactosidase,> 40 µM (inactive)
same,EC50,Streptokinase A,> 150 µM (not active)
same,EC50,BJ [4],0.966 µM (inconclusive)
same,EC50,[5],0.046 µM (active)
same,IC50,[6],> 40 µM (not active)
same,EC50,[7],> 180 µM (inactive)
same,EC50,BJ [8],1.23 µM (inconclusive)
same,EC50,[9],1.45 µM (inconclusive)
same,EC50,Streptococcus,4.44 µM (active)
same,EC50,[10],61.8 µM (active)
same,EC50,[11],0.12 µM (active)
same,IC50,[12],> 80 µM (inactive)
same,EC50,[13],35.5 µM (active)
same,EC50,[14],60.6 µM (active)
same,IC50,[15],> 100 µM (inactive)
same,EC50,BJ [16],0.37 µM (inconclusive)
same,AC50,INS1,< 0.195 µM (active)
same,EC50,[17],32 µM (active)
COc1ccc(Nc2oc(COc3ccccc3OC)nc2C#N)cc1,EC50,[18],7.69 µM (active)
same,EC50,[19],11 µM (active)
same,EC50,[20],6.17 µM (active)
same,AC50,HEK293,6.17 µM (active)
O=C(c1cc(C2CC2)on1)N(C1CCCCC1)C1CCCC1,EC50,[21],> 50 µM (inactive)
same,EC50,[22],> 50 µM (inactive)
COc1cc(NC(=O)CCn2c(=S)[nH]c3ccccc3c2=O)cc(OC)c1OC,IC50,[23],74.1 µM (active)
same,IC50,[24],4.5 µM (active)
same,IC50,Prothrombin,> 100 µM (inactive)
